# Measurements from patent publication US11744273B2, “Sweetness enhancing volatile compositions and methods of increasing perceived sweetness of a comestible” (University of Florida Research Foundation, Inc., priority 2016, dated 2023).
# Experiments:
# Assay type in all cases: in vivo, human
# sweetness [1] = experiment: Orange juice; partial least squares regression of volatiles against sweetness independent of total sugar (Table 9)
# Description: Volatile content of orange juice was assessed and analyzed similar to as described above for tomato, strawberry, and blueberry, described above. The process for obtaining volatile samples from orange juice was slightly different than for tomatoes, strawberries and blueberries. […] Briefly, instead of collecting volatiles at room temperature from a fruit mash in headspace of a closed area, the volatiles were elicited by heating the juice to collect volatiles.
# perceived sweetness [2] = experiment: Tomato taste panel; initial multiple regression of volatiles against perceived sweetness (Table 3); conditions: for association with sweetness after accounting for fructose / association with sweetness: tomato; for association with sweetness: univariate models; for t: tomato volatiles, multiple regression, contribution to sweetness independent of the measures of sugar
# Description: (§1) Fully ripe fruit were harvested, and used for taste panels. A random subset of fruit was used for biochemical analysis. Three biological replicates, each consisting of 2-20 fruit (depending on fruit size), were assayed for each variety. […] Panelists were between the ages of 18 and 78 with a median age of 22. […] An average of 85 (range of 66-95) of these panelists evaluated between 4-6 varieties in a session. All panelists went through a training session to familiarize them with the scaling and procedures. Tomatoes were sliced into wedges (or in halves for grape/cherry types) and each panelist was given two pieces for evaluation. Panelists took a bite of each sample, chewed and swallowed it, and rated overall liking and liking for texture. They then rated the perceived intensities of sweetness, sourness, saltiness, umami sensation, bitterness and overall tomato flavor. They were free to take as many bites as necessary to complete the assessments. They were instructed to take a bite of an unsalted cracker and a sip of water between samples. Samples were presented to the panelists in a randomized order. Hedonic ratings used the hedonic gLMS. This scale assesses the liking for tomatoes in the context of all pleasure/displeasure experiences: 0=neutral, −100=strongest disliking of any kind experienced, and +100=strongest liking of any kind experienced. Sensory intensity ratings used the gLMS (7,8,19). This scale assesses taste and flavor sensations in the context of all sensory experience (7): 0=no sensation, 100=strongest sensation of any kind experienced. Both scales were devised to provide valid comparisons across subjects.
# (§2) The 68 chemical compounds measured in this experiment were initially divided into six groups based upon biochemical properties: sugars, branched chain amino acids, lipids, carotenoids, phenolics, and acids. A small number of compounds for which biosynthetic pathways are not established were assigned to one of the six classes based upon their correlations with other classified compounds. All pairwise correlations among the set of 68 compounds were calculated. Correlation coefficients were sorted using Modulated Modularity Clustering (MMC) (9) as a visual aid for identifying compounds that are closely related in this sample. Biochemical groups were examined for compounds within the group that were highly correlated and compounds that were upstream in the relevant metabolic pathways were preferentially selected.
# (§3) All analyses were performed in SAS v 9.2.
# In conducting the multiple regression analysis on the tomato data set, the independent variables were the sugar content (glucose+fructose), and the flavor (indicated by the retronasal perception of volatiles), while the dependent variable was the perceived sweetness.
# flavor intensity = experiment: Tomato taste panel; association of compounds with tomato flavor intensity; conditions: for association with flavor intensity: univariate models
# Description: as §1, §2, §3
# Due to the large number of chemicals potentially influencing liking, a multivariate analysis of the data was performed. The attributes were initially partitioned into six groups based upon chemical properties and biosynthetic pathways: sugars, branched chain amino acids, fatty acids, carotenoids, phenolics, and acids. […] Groups of structurally related chemicals with known metabolic links were examined for compounds within each module that were highly colinear and compounds that were upstream in relevant metabolic pathways were preferentially selected.
# sweetness [3] = experiment: Blueberry sensory panels; multiple regression of volatiles against sweetness independent of fructose, glucose and/or sucrose (Table 8); conditions: for t Ratio (Fructose): contribution to sweetness independent of fructose; for t Ratio (Glucose): contribution to sweetness independent of glucose; for t Ratio (Sucrose): contribution to sweetness independent of sucrose
# From the text: Panelists were trained with the scaling methods and were encouraged to return for the remainder of the study. […] Panelists were also asked to rate the intensity of taste and flavor sensations of a hypothetical ideal blueberry on this scale. Each panelist received two to four berries of five to six genotypes in a single panel in a Williams design, which was generated by Compusense 5.6 (Compusense Inc., Guelph, Ontario, Canada). They were asked to eat the blueberries of each genotype at once, and to take a bite of cracker and sip of water in between samples. Ratings were recorded using Compusense software.
# Soluble solids content (SSC), titratable acidity (TA), and volatiles were quantified as described above for tomato and strawberries. The volatiles were collected for two hours via dynamic headspace with HaySep Q 80-100 porous polymer adsorbent (Valco Instruments Company Inc., Houston, Tex.) and eluted with methylene chloride and nonyl acetate as an elution standard. […] Integrated peak area of each signal was normalized for elution, fitted to relative pure chemical response, corrected for sample mass, and expressed as nanograms per gram fresh weight per hour (ng gFW-1 h-1). Response fitting was calculated using the response factor of pure chemical standards (Sigma-Aldrich, St. Louis, Mo.) run on the same instrument.
# Pair-wise correlations and significance between sensory measurements and primary bio-chemical components were calculated, with panelist as a random effect. Least Square Means (LSMeans) of the sensory data for each sample were obtained to account of the random effect of panelist. […] The response variables (Y) considered corresponded to LSMeans of overall liking, sweetness, sourness, and blueberry flavor intensity. Glucose, fructose, sucrose, TA, pH, and 52 volatile compounds were considered as explanatory variables (X). The inclusion of texture liking was evaluated independently given that no explanatory physical measure was made for sample texture. […] The model was created without texture for analysis.
# perceived sweetness [4] = experiment: Tomato taste panel; revised partial least squares regression against sweetness independent of fructose or glucose (Table 4); conditions: for FRUCTOSE t RATIO: sweetness independent of fructose; for GLUCOSE t RATIO: sweetness independent of glucose
# Description: as §1
# Biochemical and psychophysical data sets from fruit and fruit taste panels are mathematically probed for relationships using standard least squares and partial least squares regression modeling techniques (SAS JMP Pro 12.0.1 and R version 3.2.4 statistical software packages). The exact regression type is dependent on the structure of the data, i.e. depending on the size and distributions of the overall datasets.
molecule,measurement,setting,value
"C=C(C)[C@@H]1CC=C(C)[C@@H](O)C1 (relative stereo) [carveol, trans]",Total Sugar t Ratio,sweetness [1],2.542
"CCC(C)C=O (stereo not shown) [2-methylbuteraldehyde, 2-methylbutanal]",association with sweetness after accounting for fructose,perceived sweetness [2],significant after accounting for fructose
same,association with sweetness,perceived sweetness [2],showed evidence for association with sweetness
same,association with flavor intensity after accounting for fructose,flavor intensity,significant after accounting for fructose
same,association with flavor intensity,flavor intensity,associated with flavor intensity
CC(C)CCO [3-methyl-1-butanol],association with sweetness after accounting for fructose,perceived sweetness [2],significant after accounting for fructose
same,association with sweetness,perceived sweetness [2],showed evidence for association with sweetness
same,association with flavor intensity after accounting for fructose,flavor intensity,significant after accounting for fructose
same,association with flavor intensity,flavor intensity,associated with flavor intensity
CC1C=CC2C(C1)C2(C)C (stereo not shown) [4-carene],association with sweetness,perceived sweetness [2],showed evidence for association with sweetness
C=CC1(C)CCC(C(C)(C)O)O1 (stereo not shown) [(Z)-linalool oxide (furanoid)],t Ratio (Fructose),sweetness [3],1.154
same,t Ratio (Glucose),sweetness [3],1.356
same,t Ratio (Sucrose),sweetness [3],1.079
C=C1CC[C@H]2O[C@]2(C)CC[C@@H]2[C@@H]1CC2(C)C [(—)-Caryophyllene oxide],t Ratio (Fructose),sweetness [3],1.845
same,t Ratio (Glucose),sweetness [3],1.608
same,t Ratio (Sucrose),sweetness [3],.982
C=C(C)[C@H]1CC=C(C)CC1 [D-Limonene],t Ratio (Fructose),sweetness [3],1.176
same,t Ratio (Glucose),sweetness [3],.954
same,t Ratio (Sucrose),sweetness [3],.609
"C/C=C(C)/C=C/C=C(C)C [E,E-alloocimene]",Total Sugar t Ratio,sweetness [1],3.337
"C=C(C)[C@H]1C=C[C@](C)(O)CC1 [E-p-mentha-2,8-dien-1-ol]",Total Sugar t Ratio,sweetness [1],1.258
C=C(C)[C@@H]1CCC2=CCC[C@H](C)[C@@]2(C)C1 [Eremophilene],Total Sugar t Ratio,sweetness [1],1.738
"C[Si](C)(C)CCOC(=O)CC(=O)OCC[Si](C)(C)C [Malonic acid, bis(2-trimethylsilylethyl ester]",Total Sugar t Ratio,sweetness [1],3.148
"C[Si](C)(O)O [Silanediol, dimethyl-]",Total Sugar t Ratio,sweetness [1],1.781
CC1=C(C=O)C(C)(C)CCC1 [beta-cyclocitral],t,perceived sweetness [2],1.186
same,FRUCTOSE t RATIO,perceived sweetness [4],1.905
same,GLUCOSE t RATIO,perceived sweetness [4],1.688
CCCCOC(C)=O [butyl acetate],association with sweetness,perceived sweetness [2],showed evidence for association with sweetness
same,association with flavor intensity,flavor intensity,associated with flavor intensity
CC/C=C\CCO [cis-3-hexen-1-ol],association with sweetness,perceived sweetness [2],showed evidence for association with sweetness
same,association with flavor intensity after accounting for fructose,flavor intensity,significant after accounting for fructose
same,association with flavor intensity,flavor intensity,associated with flavor intensity
CCCCC/C=C\CCC=O [cis-4-decenal],t,perceived sweetness [2],0.582
CC1=CC[C@H]2[C@H]3[C@@H]1[C@]2(C)CC[C@H]3C(C)C [copaene],Total Sugar t Ratio,sweetness [1],2.06
C=CCc1ccc(O)c(OC)c1 [eugenol],association with sweetness,perceived sweetness [2],showed evidence for association with sweetness
O=C(CO)[C@@H](O)[C@H](O)[C@H](O)CO [fructose],association with sweetness,perceived sweetness [2],showed evidence for association with sweetness
same,association with flavor intensity,flavor intensity,associated with flavor intensity
CC(C)=CCC/C(C)=C/C=O [geranial],association with sweetness after accounting for fructose,perceived sweetness [2],significant after accounting for fructose
same,association with sweetness,perceived sweetness [2],showed evidence for association with sweetness
same,association with flavor intensity,flavor intensity,associated with flavor intensity
N[C@@H](CCC(=O)O)C(=O)O [glutamatic acid],FRUCTOSE t RATIO,perceived sweetness [4],−1.746
same,GLUCOSE t RATIO,perceived sweetness [4],−2.953
COc1ccccc1O [guaiacol],association with sweetness,perceived sweetness [2],showed evidence for association with sweetness
CCCCCCC=O [heptaldehyde],association with sweetness,perceived sweetness [2],showed evidence for association with sweetness
CSCCC=O [methional],association with sweetness,perceived sweetness [2],showed evidence for association with sweetness
same,association with flavor intensity,flavor intensity,associated with flavor intensity
O=CCc1ccccc1 [phenylacetaldehyde],association with sweetness,perceived sweetness [2],showed evidence for association with sweetness
C=C(C)[C@@H]1CCC2=CCC[C@@H](C)[C@]2(C)C1 [valencene],Total Sugar t Ratio,sweetness [1],2.206
CC(=O)/C=C/C1C(C)=CCCC1(C)C (stereo not drawn) [α-ionone],Total Sugar t Ratio,sweetness [1],2.042
CC1=CCCC2(C)CCC3C(C)(C)CC132 (stereo not drawn) [α-panasinsen],Total Sugar t Ratio,sweetness [1],2.909
C=C(C)[C@@H]1CC[C@@]2(C)CCC=C(C)[C@@H]2C1 [α-selinene],Total Sugar t Ratio,sweetness [1],2.428
CC1=CC[C@H]2C(C)=CC[C@@H](C(C)C)[C@@H]2C1 [β-cadinene],Total Sugar t Ratio,sweetness [1],2.69
C/C=C/C(=O)C1=C(C)C=CCC1(C)C [β-damascenone],t,perceived sweetness [2],1.012
same,FRUCTOSE t RATIO,perceived sweetness [4],0.138
same,GLUCOSE t RATIO,perceived sweetness [4],0.678
same,association with flavor intensity,flavor intensity,not associated with tomato flavor intensity
CC(=O)/C=C/C1=C(C)CCCC1(C)C [β-ionone],t,perceived sweetness [2],1.135
same,FRUCTOSE t RATIO,perceived sweetness [4],2.12
same,GLUCOSE t RATIO,perceived sweetness [4],1.748
same,Total Sugar t Ratio,sweetness [1],1.28
C=C1CCCC2(C)CCC(=C(C)C)CC12 (stereo not shown) [γ-Selinene],Total Sugar t Ratio,sweetness [1],4.272
C=C(C)C1=C[C@]2(C)C(=CC1)CCC[C@H]2C [γ-vetivenene],Total Sugar t Ratio,sweetness [1],2.469
b-caryophyllene/aromadendrene,Total Sugar t Ratio,sweetness [1],1.565
neryl propanoate/Geranyl isobutanoate,Total Sugar t Ratio,sweetness [1],2.298
